In paper PMC5392334, “Discovery and characterization of a novel irreversible EGFR mutants selective and potent kinase inhibitor CHMFL-EGFR-26 with a distinct binding mode” (Oncotarget, 2017):

Tests used:
PRKG2 = molecular target: T1, PRKG2 (Homo sapiens, UniProt Q13237); assay: KinomeScan; type: binding; details: read-out: % control
T1 construct: purchased DiscoveRx KINOMEscan

FLT3(N841I) = molecular target: T2, FLT3(N841I) (Homo sapiens, UniProt P36888, N841I); assay: KinomeScan; type: binding; details: read-out: % control
T2 construct: purchased DiscoveRx KINOMEscan

ZAP70 = molecular target: T3, ZAP70 (Homo sapiens, UniProt P43403); assay: KinomeScan; type: binding; details: read-out: % control
T3 construct: purchased DiscoveRx KINOMEscan

DMPK = molecular target: T4, DMPK (Homo sapiens, UniProt Q09013); assay: KinomeScan; type: binding; details: read-out: % control
T4 construct: purchased DiscoveRx KINOMEscan

FGFR1 = molecular target: T5, FGFR1 (Homo sapiens, UniProt P11362); assay: KinomeScan; type: binding; details: read-out: % control
T5 construct: purchased DiscoveRx KINOMEscan

PRKG1 = molecular target: T6, PRKG1 (Homo sapiens, UniProt Q13976); assay: KinomeScan; type: binding; details: read-out: % control
T6 construct: purchased DiscoveRx KINOMEscan

PHKG2 = molecular target: T7, PHKG2 (Homo sapiens, UniProt P15735); assay: KinomeScan; type: binding; details: read-out: % control
T7 construct: purchased DiscoveRx KINOMEscan

H1975 (EGFRL858R/T790M) = assay: Anti-proliferation, NSCLC cell lines (CellTiter-Glo); type: cell-based, human
Experimental: The human cancer cell lines H1975, HCC827, H2122, CHO, CHL and H1355 were purchased from the American Type Culture Collection (ATCC) (Manassas, VA, USA). PC9 cell line was purchased from the Sigma-Aldrich (St. Louis, MO, USA). A549, H3255 were purchased from Cobioer Biosciences CO., LTD (Nanjing, China). […] A549 and H1355 were cultured in F-12K Nutrient Mixture (kaighn's Modification) (Gibco, USA) with 10% FBS and supplemented with 2% L-glutamine and 1% pen/strep. H3255 was cultured in BEGM media (LONZA, USA) with 10% FBS and supplemented with 2% L-glutamine and 1% pen/strep.

MET = molecular target: T8, MET (Homo sapiens, UniProt P08581); assay: KinomeScan; type: binding; details: read-out: % control
T8 construct: purchased DiscoveRx KINOMEscan

CASK = molecular target: T9, CASK (Homo sapiens, UniProt O14936); assay: KinomeScan; type: binding; details: read-out: % control
T9 construct: purchased DiscoveRx KINOMEscan

ABL1-nonphosphorylated = molecular target: T10, ABL1-nonphosphorylated (Homo sapiens, UniProt P00519); assay: KinomeScan; type: binding; details: read-out: % control
T10 construct: purchased DiscoveRx KINOMEscan

EIF2AK1 = molecular target: T11, EIF2AK1 (Homo sapiens, UniProt Q9BQI3); assay: KinomeScan; type: binding; details: read-out: % control
T11 construct: purchased DiscoveRx KINOMEscan

PIK3CB = molecular target: T12, PIK3CB (Homo sapiens, UniProt P42338); assay: KinomeScan; type: binding; details: read-out: % control
T12 construct: purchased DiscoveRx KINOMEscan

SGK2 = molecular target: T13, SGK2 (Homo sapiens, UniProt Q9HBY8); assay: KinomeScan; type: binding; details: read-out: % control
T13 construct: purchased DiscoveRx KINOMEscan

PIK3CA(H1047L) = molecular target: T14, PIK3CA(H1047L) (Homo sapiens, UniProt P42336, H1047L); assay: KinomeScan; type: binding; details: read-out: % control
T14 construct: purchased DiscoveRx KINOMEscan

CAMK1G = molecular target: T15, CAMK1G (Homo sapiens, UniProt Q96NX5); assay: KinomeScan; type: binding; details: read-out: % control
T15 construct: purchased DiscoveRx KINOMEscan

CDK11 = molecular target: T16, CDK11 (Homo sapiens, UniProt Q9BWU1); assay: KinomeScan; type: binding; details: read-out: % control
T16 construct: purchased DiscoveRx KINOMEscan

PAK6 = molecular target: T17, PAK6 (Homo sapiens, UniProt Q9NQU5); assay: KinomeScan; type: binding; details: read-out: % control
T17 construct: purchased DiscoveRx KINOMEscan

STK35 = molecular target: T18, STK35 (Homo sapiens, UniProt Q8TDR2); assay: KinomeScan; type: binding; details: read-out: % control
T18 construct: purchased DiscoveRx KINOMEscan

FGR = molecular target: T19, FGR (Homo sapiens, UniProt P09769); assay: KinomeScan; type: binding; details: read-out: % control
T19 construct: purchased DiscoveRx KINOMEscan

PRKCI = molecular target: T20, PRKCI (Homo sapiens, UniProt P41743); assay: KinomeScan; type: binding; details: read-out: % control
T20 construct: purchased DiscoveRx KINOMEscan

FLT3-autoinhibited = molecular target: T21, FLT3-autoinhibited (Homo sapiens, UniProt P36888); assay: KinomeScan; type: binding; details: read-out: % control
T21 construct: purchased DiscoveRx KINOMEscan

EGFR(E746-A750del) = molecular target: T22, EGFR(E746-A750del) (Homo sapiens, UniProt P00533, DEL746-750); assay: KinomeScan; type: binding; details: read-out: % control
T22 construct: purchased DiscoveRx KINOMEscan

CDC2L2 = molecular target: T23, CDC2L2 (Homo sapiens, UniProt Q9UQ88); assay: KinomeScan; type: binding; details: read-out: % control
T23 construct: purchased DiscoveRx KINOMEscan

BRSK2 = molecular target: T24, BRSK2 (Homo sapiens, UniProt Q8IWQ3); assay: KinomeScan; type: binding; details: read-out: % control
T24 construct: purchased DiscoveRx KINOMEscan

BMPR2 = molecular target: T25, BMPR2 (Homo sapiens, UniProt Q13873); assay: KinomeScan; type: binding; details: read-out: % control
T25 construct: purchased DiscoveRx KINOMEscan

[1] = molecular target: T26, RSK2(Kin.Dom.1-N-terminal) (Homo sapiens, UniProt P51812); assay: KinomeScan; type: binding; details: read-out: % control
T26 construct: RSK2(Kin.Dom.1-N-terminal); purchased DiscoveRx KINOMEscan

[2] = molecular target: T27, RSK1(Kin.Dom.2-C-terminal) (Homo sapiens, UniProt Q15418); assay: KinomeScan; type: binding; details: read-out: % control
T27 construct: RSK1(Kin.Dom.2-C-terminal); purchased DiscoveRx KINOMEscan

BMPR1A = molecular target: T28, BMPR1A (Homo sapiens, UniProt P36894); assay: KinomeScan; type: binding; details: read-out: % control
T28 construct: purchased DiscoveRx KINOMEscan

LTK = molecular target: T29, LTK (Homo sapiens, UniProt P29376); assay: KinomeScan; type: binding; details: read-out: % control
T29 construct: purchased DiscoveRx KINOMEscan

INSRR = molecular target: T30, INSRR (Homo sapiens, UniProt P14616); assay: KinomeScan; type: binding; details: read-out: % control
T30 construct: purchased DiscoveRx KINOMEscan

MAP4K4 = molecular target: T31, MAP4K4 (Homo sapiens, UniProt O95819); assay: KinomeScan; type: binding; details: read-out: % control
T31 construct: purchased DiscoveRx KINOMEscan

ARK5 = molecular target: T32, ARK5 (Homo sapiens, UniProt O60285); assay: KinomeScan; type: binding; details: read-out: % control
T32 construct: purchased DiscoveRx KINOMEscan

SRPK1 = molecular target: T33, SRPK1 (Homo sapiens, UniProt Q96SB4); assay: KinomeScan; type: binding; details: read-out: % control
T33 construct: purchased DiscoveRx KINOMEscan

GRK7 = molecular target: T34, GRK7 (Homo sapiens, UniProt Q8WTQ7); assay: KinomeScan; type: binding; details: read-out: % control
T34 construct: purchased DiscoveRx KINOMEscan

SNRK = molecular target: T35, SNRK (Homo sapiens, UniProt Q9NRH2); assay: KinomeScan; type: binding; details: read-out: % control
T35 construct: purchased DiscoveRx KINOMEscan

LCK = molecular target: T36, LCK (Homo sapiens, UniProt P06239); assay: KinomeScan; type: binding; details: read-out: % control
T36 construct: purchased DiscoveRx KINOMEscan

PLK3 = molecular target: T37, PLK3 (Homo sapiens, UniProt Q9H4B4); assay: KinomeScan; type: binding; details: read-out: % control
T37 construct: purchased DiscoveRx KINOMEscan

T17 sequence (Q9NQU5 whole entry): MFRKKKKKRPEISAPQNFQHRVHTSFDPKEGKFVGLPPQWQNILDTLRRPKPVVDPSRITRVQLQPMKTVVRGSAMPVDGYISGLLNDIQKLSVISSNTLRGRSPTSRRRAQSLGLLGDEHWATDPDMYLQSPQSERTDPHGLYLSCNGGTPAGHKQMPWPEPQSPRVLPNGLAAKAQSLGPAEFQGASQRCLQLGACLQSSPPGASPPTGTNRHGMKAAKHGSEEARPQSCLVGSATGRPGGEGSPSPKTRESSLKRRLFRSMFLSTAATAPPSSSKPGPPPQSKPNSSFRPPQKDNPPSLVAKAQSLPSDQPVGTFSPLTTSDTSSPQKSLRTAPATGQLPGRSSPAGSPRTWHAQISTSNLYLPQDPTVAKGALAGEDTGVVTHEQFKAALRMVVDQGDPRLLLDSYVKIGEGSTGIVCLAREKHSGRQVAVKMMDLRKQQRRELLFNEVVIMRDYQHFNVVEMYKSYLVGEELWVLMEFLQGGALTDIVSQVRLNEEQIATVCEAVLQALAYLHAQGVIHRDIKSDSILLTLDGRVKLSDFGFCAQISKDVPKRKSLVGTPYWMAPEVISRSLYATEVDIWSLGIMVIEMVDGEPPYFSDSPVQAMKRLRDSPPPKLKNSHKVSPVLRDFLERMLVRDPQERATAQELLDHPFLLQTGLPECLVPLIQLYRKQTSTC
T36 sequence (P06239 whole entry): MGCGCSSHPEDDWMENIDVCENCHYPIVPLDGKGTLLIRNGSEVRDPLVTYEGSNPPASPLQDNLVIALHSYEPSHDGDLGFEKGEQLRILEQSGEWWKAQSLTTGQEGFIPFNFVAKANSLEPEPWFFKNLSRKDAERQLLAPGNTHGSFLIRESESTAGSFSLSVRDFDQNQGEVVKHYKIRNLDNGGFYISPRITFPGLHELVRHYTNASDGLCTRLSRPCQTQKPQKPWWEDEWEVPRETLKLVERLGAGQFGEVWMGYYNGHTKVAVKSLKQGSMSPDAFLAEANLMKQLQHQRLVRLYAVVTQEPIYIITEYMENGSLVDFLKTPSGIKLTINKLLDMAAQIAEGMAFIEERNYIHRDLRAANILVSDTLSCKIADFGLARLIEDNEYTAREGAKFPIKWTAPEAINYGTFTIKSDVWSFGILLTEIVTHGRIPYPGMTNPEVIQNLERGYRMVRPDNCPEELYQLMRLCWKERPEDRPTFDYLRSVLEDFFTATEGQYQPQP
T19 sequence (P09769 whole entry): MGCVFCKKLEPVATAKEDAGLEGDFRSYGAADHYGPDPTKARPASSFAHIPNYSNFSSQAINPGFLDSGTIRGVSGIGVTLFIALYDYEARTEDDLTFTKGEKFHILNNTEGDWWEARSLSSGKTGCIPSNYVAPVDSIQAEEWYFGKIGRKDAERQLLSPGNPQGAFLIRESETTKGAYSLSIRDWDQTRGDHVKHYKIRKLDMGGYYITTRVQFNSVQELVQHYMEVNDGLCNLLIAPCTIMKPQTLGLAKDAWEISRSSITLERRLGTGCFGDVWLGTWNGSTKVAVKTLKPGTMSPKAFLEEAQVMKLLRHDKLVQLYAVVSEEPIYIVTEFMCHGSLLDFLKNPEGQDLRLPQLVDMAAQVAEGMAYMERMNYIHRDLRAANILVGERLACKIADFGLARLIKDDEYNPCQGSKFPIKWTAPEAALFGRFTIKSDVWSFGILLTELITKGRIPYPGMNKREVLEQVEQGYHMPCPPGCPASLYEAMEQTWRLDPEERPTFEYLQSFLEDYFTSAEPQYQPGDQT
T24 sequence (Q8IWQ3 whole entry): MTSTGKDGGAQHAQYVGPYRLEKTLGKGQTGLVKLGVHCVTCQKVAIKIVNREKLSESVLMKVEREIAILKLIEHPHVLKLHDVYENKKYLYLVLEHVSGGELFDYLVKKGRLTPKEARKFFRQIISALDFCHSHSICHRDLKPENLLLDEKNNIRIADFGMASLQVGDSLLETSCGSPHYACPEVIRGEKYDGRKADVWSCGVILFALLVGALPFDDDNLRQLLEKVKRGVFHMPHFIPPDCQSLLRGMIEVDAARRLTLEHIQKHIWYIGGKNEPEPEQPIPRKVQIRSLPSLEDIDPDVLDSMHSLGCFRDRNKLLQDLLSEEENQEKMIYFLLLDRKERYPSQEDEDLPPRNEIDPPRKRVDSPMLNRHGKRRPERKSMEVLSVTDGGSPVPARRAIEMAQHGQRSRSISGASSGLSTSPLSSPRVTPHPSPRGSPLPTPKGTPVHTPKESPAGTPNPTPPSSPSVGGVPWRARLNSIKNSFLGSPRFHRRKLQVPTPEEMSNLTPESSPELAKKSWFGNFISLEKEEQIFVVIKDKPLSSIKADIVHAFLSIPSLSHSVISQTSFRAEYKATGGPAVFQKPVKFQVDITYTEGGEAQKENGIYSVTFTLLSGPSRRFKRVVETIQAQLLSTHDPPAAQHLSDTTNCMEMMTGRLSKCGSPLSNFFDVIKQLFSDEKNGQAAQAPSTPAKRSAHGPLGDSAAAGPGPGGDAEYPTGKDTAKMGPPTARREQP
T4 sequence (Q09013 whole entry): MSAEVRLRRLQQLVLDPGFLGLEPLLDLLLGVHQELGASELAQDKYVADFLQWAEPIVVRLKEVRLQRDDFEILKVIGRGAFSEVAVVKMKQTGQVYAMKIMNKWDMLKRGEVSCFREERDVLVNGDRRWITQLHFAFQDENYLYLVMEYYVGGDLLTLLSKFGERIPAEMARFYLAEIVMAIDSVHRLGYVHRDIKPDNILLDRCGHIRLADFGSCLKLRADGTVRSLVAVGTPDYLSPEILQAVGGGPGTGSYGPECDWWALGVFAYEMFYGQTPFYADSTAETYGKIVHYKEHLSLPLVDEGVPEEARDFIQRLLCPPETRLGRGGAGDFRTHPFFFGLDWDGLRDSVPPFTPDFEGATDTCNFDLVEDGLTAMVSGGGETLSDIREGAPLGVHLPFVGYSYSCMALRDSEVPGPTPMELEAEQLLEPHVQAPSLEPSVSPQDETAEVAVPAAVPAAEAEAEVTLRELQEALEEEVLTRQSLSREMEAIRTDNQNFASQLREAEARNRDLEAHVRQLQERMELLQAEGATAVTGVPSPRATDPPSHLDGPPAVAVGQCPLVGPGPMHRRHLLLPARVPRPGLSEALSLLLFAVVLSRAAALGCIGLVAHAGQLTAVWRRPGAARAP
T35 sequence (Q9NRH2 whole entry): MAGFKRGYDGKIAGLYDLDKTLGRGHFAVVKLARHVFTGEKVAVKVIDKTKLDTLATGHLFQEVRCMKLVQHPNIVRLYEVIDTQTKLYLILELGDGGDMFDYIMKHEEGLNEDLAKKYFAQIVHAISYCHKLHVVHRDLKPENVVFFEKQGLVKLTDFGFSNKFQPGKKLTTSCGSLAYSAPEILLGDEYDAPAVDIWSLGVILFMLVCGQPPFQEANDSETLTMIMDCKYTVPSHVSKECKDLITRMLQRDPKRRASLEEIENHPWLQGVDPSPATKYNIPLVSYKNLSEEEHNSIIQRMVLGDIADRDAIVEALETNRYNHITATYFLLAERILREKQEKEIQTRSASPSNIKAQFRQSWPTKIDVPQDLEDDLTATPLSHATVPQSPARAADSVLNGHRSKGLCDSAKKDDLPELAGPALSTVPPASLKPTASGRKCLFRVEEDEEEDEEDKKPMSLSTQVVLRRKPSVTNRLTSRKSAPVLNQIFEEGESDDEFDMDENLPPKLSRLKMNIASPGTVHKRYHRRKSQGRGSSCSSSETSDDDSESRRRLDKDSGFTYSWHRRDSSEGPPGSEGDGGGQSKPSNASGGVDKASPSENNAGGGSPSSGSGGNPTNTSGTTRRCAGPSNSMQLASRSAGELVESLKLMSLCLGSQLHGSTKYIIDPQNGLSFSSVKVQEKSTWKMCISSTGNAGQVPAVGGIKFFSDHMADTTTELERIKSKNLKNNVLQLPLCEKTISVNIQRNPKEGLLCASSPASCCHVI
T15 sequence (Q96NX5 whole entry): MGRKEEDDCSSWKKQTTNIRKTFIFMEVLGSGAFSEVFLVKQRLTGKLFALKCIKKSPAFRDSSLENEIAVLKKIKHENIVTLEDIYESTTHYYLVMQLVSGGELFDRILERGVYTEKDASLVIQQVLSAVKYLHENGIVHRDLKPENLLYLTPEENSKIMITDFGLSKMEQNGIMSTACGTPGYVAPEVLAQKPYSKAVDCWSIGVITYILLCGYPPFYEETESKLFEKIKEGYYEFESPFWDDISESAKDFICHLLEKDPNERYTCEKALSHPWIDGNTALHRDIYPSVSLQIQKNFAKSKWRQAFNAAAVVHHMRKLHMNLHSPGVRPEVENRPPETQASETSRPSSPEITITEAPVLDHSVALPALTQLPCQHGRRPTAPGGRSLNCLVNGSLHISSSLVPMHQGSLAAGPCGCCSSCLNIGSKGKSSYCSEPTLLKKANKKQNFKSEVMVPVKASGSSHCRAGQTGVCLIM
T7 sequence (P15735 whole entry): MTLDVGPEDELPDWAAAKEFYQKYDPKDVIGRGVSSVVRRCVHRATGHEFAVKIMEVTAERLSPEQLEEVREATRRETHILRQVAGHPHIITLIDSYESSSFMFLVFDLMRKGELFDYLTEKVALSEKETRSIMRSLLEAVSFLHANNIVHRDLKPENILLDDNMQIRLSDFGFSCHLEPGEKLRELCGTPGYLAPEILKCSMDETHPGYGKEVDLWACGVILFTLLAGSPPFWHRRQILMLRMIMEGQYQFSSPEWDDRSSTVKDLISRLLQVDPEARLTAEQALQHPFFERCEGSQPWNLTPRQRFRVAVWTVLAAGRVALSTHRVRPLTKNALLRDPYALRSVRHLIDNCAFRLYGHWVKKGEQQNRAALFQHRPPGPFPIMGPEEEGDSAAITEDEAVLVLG

C=CC(=O)N1CCC[C@@H](n2nc(-c3ccc(OCc4cccc(C)n4)c(Cl)c3)c3c(N)ncnc32)C1 [CHMFL-EGFR-26]
remaining binding at 1 µM (PRKG2): 100%
remaining binding at 1 µM (FLT3(N841I)): 93%
remaining binding at 1 µM (ZAP70): 100%
remaining binding at 1 µM (DMPK): 66%
remaining binding at 1 µM (FGFR1): 100%
remaining binding at 1 µM (PRKG1): 14%
remaining binding at 1 µM (PHKG2): 100%
fold more potent than AZD9291 (H1975 (EGFRL858R/T790M); H1975 GI50): about 170 fold
GI50 (H1975 (EGFRL858R/T790M); Homo sapiens, NCI-H1975, H1975 (EGFRL858R/T790M), 72 hours, triplet testing): < 300 pM
remaining binding at 1 µM (MET): 96%
remaining binding at 1 µM (CASK): 95%
remaining binding at 1 µM (ABL1-nonphosphorylated): 87%
remaining binding at 1 µM (EIF2AK1): 100%
remaining binding at 1 µM (PIK3CB): 94%
remaining binding at 1 µM (SGK2): 100%
remaining binding at 1 µM (PIK3CA(H1047L)): 81%
remaining binding at 1 µM (CAMK1G): 97%
remaining binding at 1 µM (CDK11): 100%
remaining binding at 1 µM (PAK6): 74%
remaining binding at 1 µM (STK35): 23%
remaining binding at 1 µM (FGR): 86%
remaining binding at 1 µM (PRKCI): 100%
remaining binding at 1 µM (FLT3-autoinhibited): 99%
remaining binding at 1 µM (EGFR(E746-A750del)): 34%
remaining binding at 1 µM (CDC2L2): 97%
remaining binding at 1 µM (BRSK2): 97%
remaining binding at 1 µM (BMPR2): 100%
remaining binding at 1 µM [1]: 95%
remaining binding at 1 µM [2]: 83%
remaining binding at 1 µM (BMPR1A): 100%
remaining binding at 1 µM (LTK): 94%
remaining binding at 1 µM (INSRR): 100%
remaining binding at 1 µM (MAP4K4): 46%
remaining binding at 1 µM (ARK5): 77%
remaining binding at 1 µM (SRPK1): 100%
remaining binding at 1 µM (GRK7): 100%
remaining binding at 1 µM (SNRK): 100%
remaining binding at 1 µM (LCK): 33%
remaining binding at 1 µM (PLK3): 85%
